Where a SMILES comes first, the peptide text is derived from it. [ ]: non-standard residue; d: D form. ξ: configuration not given here. Phe(4-NO2) = N[C@@H](Cc1ccc([N+](=O)[O-])cc1)C(=O)O; ξAla(4-thiazolyl) = NC(Cc1cscn1)C(=O)O; pS = N[C@@H](COP(=O)(O)O)C(=O)O; β3hS = N[C@@H](CO)CC(=O)O; Nva = CCC[C@H](N)C(=O)O; ξβ3hS = NC(CO)CC(=O)O; βAla = NCCC(=O)O
Biological target: T1, 14-3-3γ (Homo sapiens, UniProt P61981)
T1 construct: made in house; host or cells: E. coli NiCo21 (DE3)
T1 sequence (P61981 1-247): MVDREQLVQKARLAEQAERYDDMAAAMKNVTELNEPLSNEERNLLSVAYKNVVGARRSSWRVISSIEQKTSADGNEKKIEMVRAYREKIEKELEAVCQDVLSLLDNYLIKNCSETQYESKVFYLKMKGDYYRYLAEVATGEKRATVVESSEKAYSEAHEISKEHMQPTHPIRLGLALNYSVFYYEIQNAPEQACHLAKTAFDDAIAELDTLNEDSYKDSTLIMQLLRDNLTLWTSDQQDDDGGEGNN
Test: Fluorescence anisotropy (FA) binary binding study: 14-3-3 titrated to fluorescein-labelled peptide
Details: for ΔΔG of point mutation (FA): relative to 1, mean ± SD, SD; for Affinity Kd / Kd: Table S4, point-mutated peptides; for ΔΔG of point mutation (FA) / Affinity Kd / Kd: FA; for Affinity Kd: 10 nM FITC-labelled peptide; for Kd: 14-3-3 titrated to 10 nM FITC-labelled peptide, HEPES pH 7.4, room temperature, 4PL fit, read-out: Affinity Kd; for ΔG (FA): Table S1
Summary of the method: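 N-terminal His6-tagged full-length human 14-3-3γ expressed in E. coli, Ni-NTA purified and dialyzed into 25 mM HEPES pH 8.0, 100 mM NaCl, 10 mM MgCl2, 500 μM TCEP. Tag-cleaved 14-3-3σ truncated after T231 used for crystallography. Labelled peptides made by Fmoc solid-phase synthesis.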

[1] = Table S4, FA Kd / Kd of 1, replicate 1
[2] = Table S4, FA Kd / Kd of 1, replicate 2
[3] = Table S4, FA Kd / Kd of 1, replicate 3
[4] = Table S4, FA Kd of peptide divided by Kd of 1, mean of n = 3
[5] = Table S4, calculated from FA Kd, mean of n = 3
[6] = Table S4, from FA Kd, replicate 1
[7] = Table S4, from FA Kd, replicate 2
[8] = Table S4, from FA Kd, replicate 3
[9] = Table S4, ΔG minus ΔG of 1, FA, replicate 1
[10] = Table S4, ΔG minus ΔG of 1, FA, replicate 2
[11] = Table S4, ΔG minus ΔG of 1, FA, replicate 3
[12] = Table S4, ΔG of peptide minus ΔG of 1, FA, mean of n = 3

Row | SMILES | ΔΔG of point mutation (FA) | Affinity Kd (replicate 1) | Affinity Kd (replicate 2) | Affinity Kd (replicate 3) | Kd (mean of n = 3) | Fold change to 1 [1] | Fold change to 1 [2] | Fold change to 1 [3] | Fold change to 1 [4] | ΔG [5] | ΔG [6] | ΔG [7] | ΔG [8] | ΔΔG to 1 [9] | ΔΔG to 1 [10] | ΔΔG to 1 [11] | ΔΔG to 1 [12] | other results
1 | CCC[C@H](NC(=O)[C@H](N)CCCCN)C(=O)N[C@@H](Cc1ccc([N+](=O)[O-])cc1)C(=O)NC(Cc1cscn1)C(=O)N[C@@H](COP(=O)(O)O)C(=O)N[C@@H](Cc1ccccc1)C(=O)N[C@@H](CO)CC(=O)NCCC(=O)N[C@@H](Cc1ccc([N+](=O)[O-])cc1)C(=O)N[C@@H](CCCCN)C(N)=O (stereo partly drawn) [4b] (H-[dK][Nva][Phe(4-NO2)][ξAla(4-thiazolyl)][pS]F[β3hS][βAla][Phe(4-NO2)]K-NH2; N-terminus and C-terminus assumed) | -0.1 ± 0.3 kcal/mol | 46 nM | 33 nM | 87 nM | 55 nM | 0.9 | 0.5 | 1.2 | 0.8 | -9.9 kcal/mol | -10.0 kcal/mol | -10.2 kcal/mol | -9.6 kcal/mol | -0.1 kcal/mol | -0.5 kcal/mol | 0.1 kcal/mol | -0.1 kcal/mol | 
2 | CCC[C@H](NC(=O)[C@H](N)CCCCN)C(=O)N[C@@H](Cc1ccc([N+](=O)[O-])cc1)C(=O)NC(Cc1cscn1)C(=O)N[C@@H](COP(=O)(O)O)C(=O)N[C@@H](C)C(=O)N[C@@H](CO)CC(=O)NCCC(=O)N[C@@H](Cc1ccc([N+](=O)[O-])cc1)C(=O)N[C@@H](CCCCN)C(N)=O (stereo partly drawn) [4c] (H-[dK][Nva][Phe(4-NO2)][ξAla(4-thiazolyl)][pS]A[β3hS][βAla][Phe(4-NO2)]K-NH2; N-terminus and C-terminus assumed) | 1.8 ± 0.1 kcal/mol | 1200 nM | 1200 nM | 1600 nM | 1300 nM | 24.0 | 17.0 | 21.3 | 20.8 | -8.0 kcal/mol | -8.1 kcal/mol | -8.1 kcal/mol | -7.9 kcal/mol | 1.9 kcal/mol | 1.7 kcal/mol | 1.8 kcal/mol | 1.8 kcal/mol | 
3 | CCC[C@H](NC(=O)[C@H](N)CCCCN)C(=O)N[C@@H](Cc1ccc([N+](=O)[O-])cc1)C(=O)NC(Cc1cscn1)C(=O)N[C@@H](COP(=O)(O)O)C(=O)N[C@@H](Cc1ccc([N+](=O)[O-])cc1)C(=O)N[C@@H](CO)CC(=O)NCCC(=O)N[C@@H](Cc1ccc(O)cc1)C(=O)N[C@@H](CCCCN)C(N)=O (stereo partly drawn) [5a] (H-[dK][Nva][Phe(4-NO2)][ξAla(4-thiazolyl)][pS][Phe(4-NO2)][β3hS][βAla]YK-NH2; N-terminus and C-terminus assumed) |  | 1700 nM | 1200 nM | 1700 nM | 1500 nM | 33.2 | 17.1 | 22.5 | 24.2 | -7.9 kcal/mol | -7.9 kcal/mol | -8.1 kcal/mol | -7.9 kcal/mol | 2.1 kcal/mol | 1.7 kcal/mol | 1.8 kcal/mol | 1.9 kcal/mol | 14-3-3 binding affinity, result in words (replacement of nitro by hydroxy group at +4, compared with 5b, FA and ITC): did not restore the binding affinity
4 | CCC[C@H](NC(=O)[C@H](N)CCCCN)C(=O)N[C@@H](Cc1ccc([N+](=O)[O-])cc1)C(=O)NC(Cc1cscn1)C(=O)N[C@@H](COP(=O)(O)O)C(=O)N[C@@H](Cc1ccc([N+](=O)[O-])cc1)C(=O)N[C@@H](CO)CC(=O)NCCC(=O)N[C@@H](Cc1ccccc1)C(=O)N[C@@H](CCCCN)C(N)=O (stereo partly drawn) [5b] (H-[dK][Nva][Phe(4-NO2)][ξAla(4-thiazolyl)][pS][Phe(4-NO2)][β3hS][βAla]FK-NH2; N-terminus and C-terminus assumed) |  | 1300 nM | 1200 nM | 1800 nM | 1400 nM | 24.3 | 16.9 | 24.9 | 22.0 | -8.0 kcal/mol | -8.0 kcal/mol | -8.1 kcal/mol | -7.8 kcal/mol | 1.9 kcal/mol | 1.7 kcal/mol | 1.9 kcal/mol | 1.8 kcal/mol | 
5 | CCC[C@H](NC(=O)[C@H](N)CCCCN)C(=O)N[C@@H](Cc1ccc([N+](=O)[O-])cc1)C(=O)NC(Cc1cscn1)C(=O)N[C@@H](COP(=O)(O)O)C(=O)N[C@@H](Cc1ccc([N+](=O)[O-])cc1)C(=O)N[C@@H](CO)CC(=O)NCCC(=O)N[C@@H](C)C(=O)N[C@@H](CCCCN)C(N)=O (stereo partly drawn) [5c] (H-[dK][Nva][Phe(4-NO2)][ξAla(4-thiazolyl)][pS][Phe(4-NO2)][β3hS][βAla]AK-NH2; N-terminus and C-terminus assumed) |  | 3200 nM | 2200 nM | 2900 nM | 2800 nM | 62.1 | 31.0 | 39.8 | 44.3 | -7.6 kcal/mol | -7.5 kcal/mol | -7.7 kcal/mol | -7.5 kcal/mol | 2.4 kcal/mol | 2.0 kcal/mol | 2.2 kcal/mol | 2.2 kcal/mol | 
6 | CCC[C@H](NC(=O)[C@H](N)CCCCN)C(=O)N[C@@H](Cc1ccc([N+](=O)[O-])cc1)C(=O)NC(Cc1cscn1)C(=O)N[C@@H](COP(=O)(O)O)C(=O)N[C@@H](Cc1ccc([N+](=O)[O-])cc1)C(=O)NC(CO)CC(=O)NCCC(=O)N[C@@H](Cc1ccc([N+](=O)[O-])cc1)C(=O)N[C@@H](CCCCN)C(N)=O (stereo partly drawn) [compound 1] (H-[dK][Nva][Phe(4-NO2)][ξAla(4-thiazolyl)][pS][Phe(4-NO2)][ξβ3hS][βAla][Phe(4-NO2)]K-NH2) |  | 52 nM | 71 nM | 74 nM |  |  |  |  |  | -9.8 kcal/mol | -9.9 kcal/mol | -9.7 kcal/mol | -9.7 kcal/mol |  |  |  |  | ΔG (FA) (calculated from FA KD, mean of n = 3): -10.5 kcal/mol; ΔG (FA) (from FA KD, replicate 1): -10.6 kcal/mol; ΔG (FA) (from FA KD, replicate 2): -10.6 kcal/mol; ΔG (FA) (from FA KD, replicate 3): -10.4 kcal/mol; ΔG (Table S2, calculated from FA KD, mean of n = 3): -10,53 kcal/mol; ΔG (Table S2, from FA KD, replicate 1): -10,61 kcal/mol; ΔG (Table S2, from FA KD, replicate 2): -10,56 kcal/mol; ΔG (Table S2, from FA KD, replicate 3): -10,41 kcal/mol; free binding energy ΔG (FA) (from FA KD): -10.5 kcal/mol
